Test results from BindingDB's records for doi:10.1016/j.bmc.2017.06.018 (Chungnam National University, 2017).

assay: Inhibition of IL-5 in mouse Y16 cells assessed as reduction in cell proliferation after 48 hrs by WST-1 assay

IC50 [µM] | Compound
25.3 | CCCC(=O)N(CCO)Cc1coc2cccc(OCC3CCCCC3)c2c1=O
17.9 | COc1ccc(CC(=O)N(CCO)Cc2coc3cccc(OCC4CCCCC4)c3c2=O)cc1
10 | O=C(Cc1ccccc1)N(CCO)Cc1coc2cccc(OCC3CCCCC3)c2c1=O
> 30 | O=C(Nc1ccc(Cl)cc1)N(CCO)Cc1coc2cccc(OCC3CCCCC3)c2c1=O
18 | COc1ccc(NC(=O)N(CCO)Cc2coc3cccc(OCC4CCCCC4)c3c2=O)cc1
18 | O=C(NCc1ccccc1)N(CCO)Cc1coc2cccc(OCC3CCCCC3)c2c1=O
20.2 | CCOC(=O)N(CCO)Cc1coc2cccc(OCC3CCCCC3)c2c1=O
25 | O=C(Oc1ccccc1)N(CCO)Cc1coc2cccc(OCC3CCCCC3)c2c1=O
25.2 | CCC(=O)N(CCO)Cc1coc2cccc(OCC3CCCCC3)c2c1=O
> 30 | CCNC(=O)N(CCO)Cc1coc2cccc(OCC3CCCCC3)c2c1=O

The next lines start with the molecule.

Compound | IC50 [µM]
CC(C)(C)CCOc1cccc2occ(CN(CCO)C(=O)Cc3ccccc3)c(=O)c12 | > 30
CC(C)CCOc1cccc2occ(CN(CCO)C(=O)Cc3ccccc3)c(=O)c12 | > 30
O=c1c(-c2ccc(O[C@H]3O[C@@H](CO)[C@H](O)[C@@H](O)[C@@H]3O)cc2)coc2cc(O)cc(O)c12 | 10.6
CCCNC(=O)N(CCO)Cc1coc2cccc(OCC3CCCCC3)c2c1=O | > 30
CC(C)NC(=O)N(CCO)Cc1coc2cccc(OCC3CCCCC3)c2c1=O | > 30
O=C(Nc1ccccc1)N(CCO)Cc1coc2cccc(OCC3CCCCC3)c2c1=O | 17
O=C(NC1CCCCC1)N(CCO)Cc1coc2cccc(OCC3CCCCC3)c2c1=O | 17
O=C(NCCCc1ccccc1)N(CCO)Cc1coc2cccc(OCC3CCCCC3)c2c1=O | 15
CC(C)(C)CCOc1cccc2occ(CN(CCO)C(=O)Nc3ccccc3)c(=O)c12 | > 30
CC(C)CCOc1cccc2occ(CN(CCO)C(=O)Nc3ccccc3)c(=O)c12 | > 30
CC(C)(C)CCOc1cccc2occ(CN(CCO)C(=O)Oc3ccccc3)c(=O)c12 | > 30
CC(C)CCOc1cccc2occ(CN(CCO)C(=O)Oc3ccccc3)c(=O)c12 | > 30
